Experimental data: patent US10717716B2, “1,3,4-oxadiazole derivative compounds as histone deacetylase 6 inhibitor, and the pharmaceutical composition comprising the same” (Chong Kun Dang Pharmaceutical Corp., priority 2015, dated 2020)

Legend:
human recombinant HDAC6 = target: T1, human recombinant HDAC6 (Homo sapiens, UniProt Q9UBN7); assay: HDAC6 enzyme activity inhibition assay (HDAC Fluorimetric Drug Discovery Kit); assay type: biochemical; details: for HDAC6 selectivity (fold): HDAC6 over HDAC1; for IC50: human recombinant HDAC6, same protocol as HDAC1, read-out: HDAC6
T1 construct: purchased Calbiochem 382180
T1 sequence (Q9UBN7 1-1215): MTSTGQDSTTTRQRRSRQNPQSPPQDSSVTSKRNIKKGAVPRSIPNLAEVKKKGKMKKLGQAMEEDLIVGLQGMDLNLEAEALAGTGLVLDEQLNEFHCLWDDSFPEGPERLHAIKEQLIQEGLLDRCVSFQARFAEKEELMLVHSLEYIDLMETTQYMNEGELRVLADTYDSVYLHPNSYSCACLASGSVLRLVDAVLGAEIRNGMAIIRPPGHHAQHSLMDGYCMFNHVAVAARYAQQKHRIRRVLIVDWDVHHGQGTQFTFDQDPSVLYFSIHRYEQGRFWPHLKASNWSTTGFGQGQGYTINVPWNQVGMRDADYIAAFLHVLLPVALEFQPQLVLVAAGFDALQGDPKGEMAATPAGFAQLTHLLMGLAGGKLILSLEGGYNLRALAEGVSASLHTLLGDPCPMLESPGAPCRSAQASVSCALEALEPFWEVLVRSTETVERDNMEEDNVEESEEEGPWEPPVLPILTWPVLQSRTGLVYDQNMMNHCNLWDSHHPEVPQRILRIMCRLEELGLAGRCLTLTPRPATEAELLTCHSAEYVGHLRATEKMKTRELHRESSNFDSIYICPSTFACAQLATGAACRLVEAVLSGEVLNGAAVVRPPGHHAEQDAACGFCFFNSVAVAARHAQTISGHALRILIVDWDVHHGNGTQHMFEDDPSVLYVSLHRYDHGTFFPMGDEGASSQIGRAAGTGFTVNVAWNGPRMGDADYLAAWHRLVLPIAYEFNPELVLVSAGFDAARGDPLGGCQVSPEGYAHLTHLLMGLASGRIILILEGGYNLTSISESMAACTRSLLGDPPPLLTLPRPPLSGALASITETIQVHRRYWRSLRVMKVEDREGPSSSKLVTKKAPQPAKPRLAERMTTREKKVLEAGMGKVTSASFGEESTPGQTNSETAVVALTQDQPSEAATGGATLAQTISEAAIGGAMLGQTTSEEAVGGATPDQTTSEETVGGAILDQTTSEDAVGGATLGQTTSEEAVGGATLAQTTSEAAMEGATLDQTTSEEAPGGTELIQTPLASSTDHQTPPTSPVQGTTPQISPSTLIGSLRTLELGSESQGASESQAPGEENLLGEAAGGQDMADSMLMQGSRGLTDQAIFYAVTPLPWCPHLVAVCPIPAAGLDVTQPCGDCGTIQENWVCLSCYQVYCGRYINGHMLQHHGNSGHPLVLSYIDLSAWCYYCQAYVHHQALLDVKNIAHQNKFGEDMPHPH
Procedure, shortened: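 Human recombinant HDAC1 or HDAC6 (0.3 μg) reacted with 10 μM Fluor de Lys-SIRT1 substrate and 5-fold compound dilutions for 60 min at 30 °C. Developer II added for 30 min, fluorescence read at Ex 360/Em 460; IC50 calculated from the readings.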

human recombinant HDAC1 = target: T2, human recombinant HDAC1 (Homo sapiens, UniProt Q13547); assay: HDAC1 enzyme activity inhibition assay (HDAC Fluorimetric Drug Discovery Kit); assay type: biochemical; details: human recombinant HDAC1, Fluor de Lys substrate 10 μM, 30° C. 60 minutes
T2 construct: purchased Enzo Life Science BML-SE456
T2 sequence (Q13547 whole entry): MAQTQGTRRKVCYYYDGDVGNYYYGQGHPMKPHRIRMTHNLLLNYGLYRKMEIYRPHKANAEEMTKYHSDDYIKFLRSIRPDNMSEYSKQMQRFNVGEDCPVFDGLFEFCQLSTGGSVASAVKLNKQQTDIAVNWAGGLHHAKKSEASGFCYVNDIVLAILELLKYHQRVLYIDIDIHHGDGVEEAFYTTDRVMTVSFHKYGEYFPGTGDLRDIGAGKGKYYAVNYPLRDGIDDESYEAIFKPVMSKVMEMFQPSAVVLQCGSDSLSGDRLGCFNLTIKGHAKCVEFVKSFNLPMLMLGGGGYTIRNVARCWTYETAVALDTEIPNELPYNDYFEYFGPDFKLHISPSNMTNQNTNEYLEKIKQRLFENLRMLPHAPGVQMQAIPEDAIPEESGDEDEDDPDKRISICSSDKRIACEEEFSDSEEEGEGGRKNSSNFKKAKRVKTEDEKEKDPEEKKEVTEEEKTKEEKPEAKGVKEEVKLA
Procedure: In order to examine the HDAC6 selectivity of the compounds of formula I of the present invention by HDAC1 and HDAC6 enzymatic activity inhibition assays, an experiment was performed using a conventional substance as a control.
HDAC enzyme activity was measured using a HDAC Fluorimetric Drug Discovery Kit (BML-AK511, 516, Enzo Life Science). For the HDAC1 enzyme activity test, human recombinant HDAC1 (BML-SE456) was used as an enzyme source, and Fluor de Lys®-“SIRT1 (BNL-KI177) was used as a substrate. A 5-fold dilution of the compound was seeded into a 96-well plate, and then 0.3 μg of the enzyme and 10 μM of the substrate were added to each well of the plate and allowed to react at 30° C. for 60 minutes. Then, Fluor de Lys®-Developer II (BML-KI176) was added thereto and allowed to react for 30 minutes, after which the fluorescence value (Ex 360, Em 460) was measured using a multi-plate reader (Flexstation 3, Molecular Device). The HDAC6 enzyme was tested using human recombinant HDAC6 (382180) (Calbiochem) according to the same protocol as the HDAC1 enzyme activity test method. Based on the resulting values, each IC5, value was calculated using GraphPad Prism4.0 program.

SMILES	HDAC6 selectivity (fold) (human recombinant HDAC6)	IC50 (human recombinant HDAC6) [nM]	IC50 (human recombinant HDAC1) [nM]
O=C(N1CCOCC1)N(Cc1ccc(-c2nnc(C(F)(F)F)o2)cc1)c1ccccc1 [Compound 21249, N-phenyl-N-(4-(5-(trifluoromethyl)-1,3,4-oxadiazol-2-yl)benzyl)morpholine-4-carboxamide]	115	87	10000
O=C(N1CCS(=O)(=O)CC1)N(Cc1ccc(-c2nnc(C(F)(F)F)o2)cc1)c1ccc(F)cc1 [Compound 21389, N-(4-Fluorophenyl)-N-(4-(5-(trifluoromethyl)-1,3,4-oxadiazol-2-yl)benzyl)thiomorpholine-4-carboxamide 1,1-dioxide]	68	93	6360
COc1ccc(N(Cc2ccc(-c3nnc(C(F)(F)F)o3)cc2)C(=O)N2CCS(=O)(=O)CC2)cc1 [Compound 21390, N-(4-methoxyphenyl)-N-(4-(5-(trifluoromethyl)-1,3,4-oxadiazol-2-yl)benzyl)thiomorpholine-4-carboxamide 1,1-dioxide]	17	317	5280
O=C(N1CCS(=O)(=O)CC1)N(Cc1ccc(-c2nnc(C(F)(F)F)o2)cc1)c1cccc(Br)c1 [Compound 21393, N-(3-bromophenyl)-N-(4-(5-(trifluoromethyl)-1,3,4-oxadiazol-2-yl)benzyl)thiomorpholine-4-carboxamide 1,1-dioxide]	65	137	8960
O=C(N1CCS(=O)(=O)CC1)N(Cc1ccc(-c2nnc(C(F)(F)F)o2)cc1)c1cccc(-c2ccoc2)c1 [Compound 21435, N-(3-(furan-3-yl)phenyl)-N-(4-(5-(trifluoromethyl)-1,3,4-oxadiazol-2-yl)benzyl)thiomorpholine-4-carboxamide 1,1-dioxide]	12	286	3380
O=C(NCCN1CCN(c2ccncc2)CC1)N(Cc1ccc(-c2nnc(C(F)F)o2)cc1F)c1ccccc1 [Compound 22009, 1-(4-(5-(Difluoromethyl)-1,3,4-oxadiazol-2-yl)-2-fluorobenzyl)-1-phenyl-3-(2-(4-(pyridin-4-yl)piperazin-1-yl)ethyl)urea]	97	103	–
O=C(NCCN1CCN(c2ccc(F)cc2)CC1)N(Cc1ccc(-c2nnc(C(F)F)o2)cc1F)c1ccccc1 [Compound 22010, 1-(4-(5-(Difluoromethyl)-1,3,4-oxadiazol-2-yl)-2-fluorobenzyl)-3-(2-(4-(4-fluorophenyl)piperazin-1-yl)ethyl)-1-phenylurea]	29	341	–
O=C(NCCN1CCN(c2noc3ccccc23)CC1)N(Cc1ccc(-c2nnc(C(F)F)o2)cc1F)c1ccccc1 [Compound 22011, 3-(2-(4-(Benzo[d]isoxazol-3-yl)piperazin-1-yl)ethyl)-1-(4-(5-(difluoromethyl)-1,3,4-oxadiazol-2-yl)-2-fluorobenzyl)-1-phenylurea]	31	320	–
O=C(NCCN1CCN(c2ccc(Cl)c(Cl)c2)CC1)N(Cc1ccc(-c2nnc(C(F)F)o2)cc1F)c1ccccc1 [Compound 22012, 3-(2-(4-(3,4-Dichlorophenyl)piperazin-1-yl)ethyl)-1-(4-(5-(difluoromethyl)-1,3,4-oxadiazol-2-yl)-2-fluorobenzyl)-1-phenylurea]	10	1020	–
O=C(NCCN1CCN(Cc2ccccc2)CC1)N(Cc1ccc(-c2nnc(C(F)F)o2)cc1F)c1ccccc1 [Compound 22013, 3-(2-(4-Benzylpiperazin-1-yl)ethyl)-1-(4-(5-(difluoromethyl)-1,3,4-oxadiazol-2-yl)-2-fluorobenzyl)-1-phenylurea]	51	197	–
O=C(NCCN1CCN(CCc2ccccc2)CC1)N(Cc1ccc(-c2nnc(C(F)F)o2)cc1F)c1ccccc1 [Compound 22014, 1-(4-(5-(Difluoromethyl)-1,3,4-oxadiazol-2-yl)-2-fluorobenzyl)-3-(2-(4-phenethylpiperazin-1-yl)ethyl)-1-phenylurea]	46	219	–
O=C(NCCN1CCN(CCc2ccncc2)CC1)N(Cc1ccc(-c2nnc(C(F)F)o2)cc1F)c1ccccc1 [Compound 22015, 1-(4-(5-(Difluoromethyl)-1,3,4-oxadiazol-2-yl)-2-fluorobenzyl)-1-phenyl-3-(2-(4-(2-(pyridin-4-yl)ethyl)piperazin-1-yl)ethyl)urea]	105	95	–
O=C(NCCN1CCN(C/C=C/c2ccccc2)CC1)N(Cc1ccc(-c2nnc(C(F)F)o2)cc1F)c1ccccc1 [Compound 22016, 3-(2-(4-Cinnamylpiperazin-1-yl)ethyl)-1-(4-(5-(difluoromethyl)-1,3,4-oxadiazol-2-yl)-2-fluorobenzyl)-1-phenylurea]	42	237	–
O=C(NCCN(Cc1ccccc1)Cc1ccccc1)N(Cc1ccc(-c2nnc(C(F)F)o2)cc1F)c1ccccc1 [Compound 22017, 3-(2-(Dibenzylamino)ethyl)-1-(4-(5-(difluoromethyl)-1,3,4-oxadiazol-2-yl)-2-fluorobenzyl)-1-phenylurea]	7	1380	–
O=C(N1CCOCC1)N(Cc1ccc(-c2nnc(C(F)F)o2)cc1F)c1nccs1 [Compound 22018, N-(4-(5-(Difluoromethyl)-1,3,4-oxadiazol-2-yl)-2-fluorobenzyl)-N-(thiazol-2-yl)morpholine-4-carboxamide]	4	2390	–
O=C(N1CCOCC1)N(Cc1ccc(-c2nnc(C(F)F)o2)cc1F)c1cccs1 [Compound 22019, N-(4-(5-(Difluoromethyl)-1,3,4-oxadiazol-2-yl)-2-fluorobenzyl)-N-(thiophen-2-yl)morpholine-4-carboxamide]	79	127	–
O=C(N1CCS(=O)(=O)CC1)N(Cc1ccc(-c2nnc(C(F)F)o2)cc1F)c1cccs1 [Compound 22020, N-(4-(5-(Difluoromethyl)-1,3,4-oxadiazol-2-yl)-2-fluorobenzyl)-N-(thiophen-2-yl)thiomorpholine-4-carboxamide 1,1-dioxide]	73	138	–
O=C(N1CCS(=O)(=O)CC1)N(Cc1ccc(-c2nnc(C(F)F)o2)cc1F)c1ccsc1 [Compound 22021, N-(4-(5-(Difluoromethyl)-1,3,4-oxadiazol-2-yl)-2-fluorobenzyl)-N-(thiophen-3-yl)thiomorpholine-4-carboxamide 1,1-dioxide]	101	99	–
CCN1CCN(Cc2cccc(N(Cc3ccc(-c4nnc(C(F)F)o4)cc3F)C(=O)N3CCS(=O)(=O)CC3)c2)CC1 [Compound 22024, N-(4-(5-(difluoromethyl)-1,3,4-oxadiazol-2-yl)-2-fluorobenzyl)-N-(3-((4-ethylpiperazin-1-yl)methyl)phenyl)thiomorpholine-4-carboxamide 1,1-dioxide]	36	281	–
